The values that follow come from the Deep4Chem optical property database.

Structures are written as SMILES.

The nature of the series: solvent given as SMILES.

Regarding `COc1ccc(-c2ccc3c(c2)[Si](C)(C)c2cc(-c4ccc(OC)cc4)ccc2C=C3)cc1`, under “in ClCCl”, the absorption maximum is reported as 385 nm.

Under “in C1CCOC1”, `c1cc2ccc1-c1ccc(cc1)-c1sc(c3c1OCCO3)-c1ccc(cc1)-c1ccc(cc1)-c1sc(c3c1OCCO3)-c1ccc(cc1)-c1ccc(cc1)-c1sc-2c2c1OCCO2` came in with an absorption maximum of 371 nm.

In the case of `CCn1c2ccccc2c2cc(/C=C/c3cc(/C=C/c4ccc5c(c4)c4ccccc4n5CC)[n+](CCCS(=O)(=O)[O-])c(/C=C/c4ccc5c(c4)c4ccccc4n5CC)c3)ccc21`, the absorption maximum reads like this: (in C1CCOC1) 464 nm; (in CC#N) 458 nm; (in CC(C)=O) 462 nm; (in Cc1ccccc1) 466 nm.

The compound `CCC1=C(CC)C(C)=[N+]2C1=Cc1c(C)c3cc4c(cc3n1[B-]2(F)F)=[N+]1C(=Cc2c(CC)c(CC)c(C)n2[B-]1(F)F)C=4C` registered an absorption maximum (in ClC(Cl)Cl) of 692 nm.

In the case of `O=C(O)c1ccc2ccc3cccc4ccc1c2c34`, the absorption maximum is, setting by setting: (in C1CCOC1) 379 nm; (in CC#N) 379 nm; (in CCCCCC) 381 nm; (in CCO) 340 nm; (in CN(C)C=O) 377 nm; (in CO) 339 nm. Further, the absorption maximum is 382 nm (in Cc1ccccc1) and 382 nm (in ClCCl).

Under “in CC#N”, `C(=C\c1ccc(/C=C/c2cccs2)s1)/c1cccs1` showed an absorption maximum of 423 nm.

Take `COc1ccc(-n2cccc2)cc1`: the absorption maximum runs as follows: (in CC#N) 252 nm; (in CCCCCC) 252 nm.

For `CCOC(=O)c1sc2nc(-c3ccccc3)c(C)c(C#N)c2c1N`, the absorption maximum by setting is: (in C1COCCO1) 420 nm; (in CC#N) 412 nm; (in CCO) 423 nm; (in CCOC(C)=O) 419 nm; (in ClC(Cl)Cl) 416 nm; (in c1ccccc1) 418 nm.

With `c1ccc(N(c2ccccc2)c2ccc3c(c2)-c2ccccc2C32c3ccccc3-n3c4ccccc4c4cccc2c43)cc1` (stereo not drawn), for the setting “in ClCCl”, the absorption maximum came to 354 nm.

As to `Cc1cc(O)c(C(=O)/C=C/c2ccccc2Cl)c(=O)o1`, the absorption maximum (in CC#N) was determined as 353 nm and the absorption maximum (in ClCCl) is given as 355 nm.

`c1ccc2c(c1)-c1ccccc1C21c2ccccc2-c2c1c1c3ccccc3ccc1c1ccccc21`: for the setting “in C1CCOC1”, the absorption maximum was determined as 377 nm.

Turning to `F[B-]1(F)OC(/C=C/c2ccccc2)=CC(c2ccccc2)=[O+]1`, the absorption maximum (in ClCCl) came to 398 nm.

Consider `CCCCN1C(=S)c2cccc3c(N(C)C)ccc(c23)C1=S`, for which the absorption maximum turned out to be 571 nm (in CC#N), 588 nm (in CS(C)=O) and 536 nm (in Cc1ccccc1).

The compound `CCc1c(C)[nH]c(C2=[N+]3C(=Cc4c(C)cc(C)n4[B-]3(F)F)c3ccccc32)c1C` came in with an absorption maximum (in C1CCOC1) of 615 nm; an absorption maximum (in CC#N) of 607 nm; an absorption maximum (in CCCCCC) of 616 nm; an absorption maximum (in CO) of 610 nm; an absorption maximum (in Cc1ccccc1) of 623 nm; an absorption maximum (in ClCCl) of 616 nm.

`N#Cc1cccc(-c2pc3ccccc3s2)c1` (stereo not drawn) had an absorption maximum (in CC#N) of 324 nm.

`CCCC1=Cc2nc1ccc1[nH]c(cc1CCC)c1nc(c(OC(C)=O)cc3[nH]c2cc3CCC)C(CCC)=C1` showed an absorption maximum (in Cc1ccccc1) of 645 nm.

As to `Cc1ccc(-c2ccc(-c3ccc(-c4ccc(-c5ccc(C)cc5)cc4)c(/C(=C(/c4ccccc4)c4cc(-c5ccc(-c6ccc(C)cc6)cc5)ccc4-c4ccc(-c5ccc(C)cc5)cc4)c4ccccc4)c3)cc2)cc1`, for the setting “in C1CCOC1”, the absorption maximum is 308 nm.

For the compound `N#CC(C#N)=C(/C=C/c1cn(-c2ccccc2)nc1-c1ccccc1)c1ccccc1`, the absorption maximum is reported as 402 nm (in C1CCOC1); 399 nm (in C1COCCO1); 402 nm (in CCO); 399 nm (in CCOC(C)=O); 405 nm (in CN(C)C=O); 397 nm (in CO). The absorption maximum is, setting by setting: (in CS(C)=O) 409 nm; (in Cc1ccccc1) 405 nm; (in ClC(Cl)Cl) 406 nm; (in ClCCl) 403 nm.

`C(=C\c1ccc(N(c2ccccc2)c2ccccc2)cc1)/c1ccc(-c2ccc(/C=C/c3ccc(N(c4ccccc4)c4ccccc4)cc3)cc2)cc1` came in with an absorption maximum (in ClCCl) of 398 nm.

Turning to `O=[N+]([O-])c1cc(C=C(C#Cc2ccccc2)C#Cc2ccccc2)ccc1C=C(C#Cc1ccccc1)C#Cc1ccccc1`, the absorption maximum (in ClC(Cl)Cl) is on record as 413 nm.

With `CCCCCCCC[Si](C)(C)c1cccc2ccccc12`, the absorption maximum (in C1CCCCC1) is 294 nm.

For the compound `CN(C)c1ccc(-c2cc3c(ccc4c([N+](=O)[O-])cccc43)c(=O)o2)cc1`, the absorption maximum worked out at 435 nm (in CCOC(C)=O) and 439 nm (in CO).

Consider `CC1(C)c2ccccc2N(c2ccc(-c3n[n+]4c(o3)-c3ccccc3O[B-]4(F)F)cc2)c2ccccc21`, for which the absorption maximum reads like this: (in C1COCCO1) 361 nm; (in CC(C)=O) 360 nm; (in CCN(CC)CC) 362 nm; (in CCO) 361 nm; (in CCOC(C)=O) 361 nm; (in CS(C)=O) 362 nm. For the same compound, the absorption maximum is, setting by setting: (in Cc1ccccc1) 364 nm; (in ClC(Cl)Cl) 367 nm; (in ClCCCl) 362 nm; (in ClCCl) 383 nm; (in Clc1ccccc1) 369 nm.

For the compound `COc1nc(Cl)nc(Nc2ccc3cc4ccccc4cc3c2)n1`, the absorption maximum runs as follows: (in C1COCCO1) 394 nm; (in CC#N) 397 nm; (in CCCCOCCCC) 396 nm; (in CCOC(C)=O) 398 nm.

For the setting “in CCOC(C)=O”, `CCN1CCN(c2ccc(/N=N/c3cc(C(=O)OC)cc(C(=O)OC)c3)cc2)CC1` registered an absorption maximum of 416 nm.

Consider `N#Cc1ccc(/C=C/c2ccc(C=C(c3ccccc3)c3ccccc3)cc2)cc1`, for which, under “in C1CCOC1”, the absorption maximum amounted to 366 nm.

With `CCOC(=O)c1csc2[n+]1[B-](F)(F)OC(c1ccc(N(C)C)cc1)=N2`, the absorption maximum reads like this: (in C1CCOC1) 404 nm; (in CC#N) 405 nm; (in Cc1ccccc1) 406 nm; (in ClCCl) 412 nm.

On to `CC1(C)CC(NCc2ccc3ccc4cccc5ccc2c3c45)CC(C)(C)N1`, for which the absorption maximum runs as follows: (in C1CCCCC1) 374 nm; (in CC#N) 374 nm; (in CO) 374 nm; (in ClC(Cl)Cl) 389 nm.

As to `O=C(O)C1=CC(=C/C=[N+]2/c3cc(O)c(C[C@@H]4O[C@H](CO)[C@@H](O)C(O)[C@H]4O)cc3C[C@H]2C(=O)O)C=C(C(=O)O)N1` (stereo partly drawn), the absorption maximum (in CO) stood at 467 nm, the absorption maximum (in O) was determined as 468 nm, the absorption maximum (in OCCO) amounted to 476 nm and the absorption maximum (in [2H]O[2H]) worked out at 468 nm.

Regarding `C(#Cc1c(C#Cc2ccccc2)c(C#Cc2ccccc2)c(C#Cc2ccccc2)c(C#Cc2ccccc2)c1C#Cc1ccccc1)c1ccccc1`, the absorption maximum (in ClCCl) was 371 nm.

`Clc1ccc(-c2nc(-c3ccccc3)c(N(c3ccccc3)c3ccccc3)s2)cc1` yielded an absorption maximum (in ClC(Cl)Cl) of 371 nm.

`C(=C\c1nc2ccccc2s1)/c1ccccc1`: the absorption maximum was 340 nm (in C1CCCCC1) and 340 nm (in CO).

Turning to `O=Cc1ccc(-c2ccc(C3=CCC(c4ccccc4)CC3)s2)s1` (stereo not drawn), the absorption maximum amounted to 385 nm (in C1CCOC1); 385 nm (in CC#N); 380 nm (in CCCCCC); 389 nm (in CCO); 389 nm (in OCCOCCO); 393 nm (in c1ccncc1).

As to `CCOC(=O)c1c2c3c(ccc(OC)c3c3cc4ccccc4cc13)N(C)C2=O`, where the note is “in CC#N”, the absorption maximum was 406 nm.

`CC[n+]1c(-c2ccccc2)c2cc(NC(=O)NCC[NH3+])ccc2c2ccc(NC(=O)NCC[NH3+])cc21` showed an absorption maximum (in O) of 438 nm.

In the case of `CC(C)(C)NC(=O)c1cccc2ccc3c4ccccc4c4ccccc4c3c12`, the absorption maximum (in ClCCl) was 332 nm.

The compound `Cc1cc(-c2nc3c4ccccc4c4ccccc4c3n2-c2ccc(C(C)(C)C)cc2)ccc1-c1ccc(-c2c(-c3ccccc3)nc3ccccn23)cc1` registered an absorption maximum (in ClCCl) of 364 nm.

For the compound `N#Cc1ncc(-c2c3ccccc3c(-c3cnc(C#N)nc3)c3ccccc23)cn1`, the absorption maximum is reported as 395 nm (in CCO) and 397 nm (in ClCCl).

For the setting “in C1CCOC1”, `COc1cc2oc(=O)c3c4ccc(C=O)cc4c4ccc5cccc6c(c1)c2c3c4c56` came in with an absorption maximum of 425 nm.

`CCn1c2cc(C(C)(C)C)ccc2c2c3nsnc3c3c4ccc(C(C)(C)C)cc4n(CC)c3c21` came in with an absorption maximum (in CN(C)C=O) of 430 nm, an absorption maximum (in Cc1ccccc1) of 425 nm and an absorption maximum (in ClCCl) of 430 nm.

The compound `O=C1c2ccccc2-c2nc3c4ccccc4c4ccccc4c3n21` showed an absorption maximum (in ClCCl) of 441 nm.

`c1ccc(-c2ccnc(-c3ccccc3)n2)cc1` showed an absorption maximum (in ClC(Cl)Cl) of 278 nm.

`Cc1ccc2nc(/C=C/c3ccc(N(C)C)cc3)c(-c3ccccc3)nc2c1` had an absorption maximum (in C1COCCO1) of 430 nm, an absorption maximum (in CC#N) of 433 nm and an absorption maximum (in ClCCl) of 436 nm.

Turning to `O=C1NC(=O)/C(=C\c2ccccc2O)S1`, the absorption maximum is listed as 347 nm (in C1CCCCC1); 350 nm (in C1COCCO1); 348 nm (in CC#N); 353 nm (in CN(C)C=O); 352 nm (in CO); 351 nm (in O). This compound had an absorption maximum (in OCC(O)CO) of 364 nm and an absorption maximum (in OCCO) of 360 nm.

Regarding `N#CC(C#N)=C(c1cccc(N(c2ccccc2)c2ccccc2)c1)c1cccc(N(c2ccccc2)c2ccccc2)c1`, the absorption maximum (in C1CCCCC1) is reported as 367.69 nm; the absorption maximum (in CC(C)=O) amounted to 371.43 nm; the absorption maximum (in CN(C)C=O) is 374.84 nm; the absorption maximum (in Cc1ccccc1) is 374.84 nm; the absorption maximum (in ClC(Cl)Cl) is 382.14 nm.
